Measurements taken from patent US20100120738A1, “ANTI-APOPTOTIC BENZODIAZEPINE RECEPTOR LIGAND INHIBITORS” (priority 2006, published 2010).
Like-named read-outs stand apart in the source and are kept apart here.

Assays:
PC12 cells = test: Protection against STS-induced apoptosis in PC12 cells (XTT viability assay); assay type: cell-based, rat
Procedure: Rat pheochromocytoma (PC12) cells were cultured in collagen-coated 96-well plates according to directions provided by the American Type Culture Collection. Staurosporine was added at various concentrations sufficient to induce apoptosis. Test compounds were added together with the staurosporine. Cells were incubated overnight at 37° C., 5% CO2. After 18-24 hours, test media was removed and cell viability was determined using the XTT viability assay described by Baker et al., J. Pharmacol. Exp, Therapeutics 284, 215-221, 1998, the contents of which are incorporated herein by reference.

[1] = tested on: Bovine capillary endothelial cells; test: Protection against radiation-induced apoptosis (DAPI apoptotic index); assay type: cell-based; details: for concentration providing protection from the apoptotic effects of ionizing radiation: DAPI staining, apoptotic index, 6 h
Procedure: Bovine capillary endothelial cells were cultured on eight chamber Labtek slides and exposed to ionizing radiation (20 Gy) for 6 hours. After this time, cells were either left untreated or treated with compound at the concentration indicated on the x-axis. Cells were then fixed in methanol and stained with 5 μg/ml DAPI and DNA was visualized using a Nikon epifluorescence microscope, and apoptosis scored and expressed as an apoptotic index according to the percentage of apoptotic cells in a field of 100 cells. Open bars indicate apoptotic index following irradiation. Hatched bars indicate apoptotic index for control cells not receiving a dose of ionizing radiation.
(§1) Bovine capillary endothelial cells were cultured on eight-chamber Labtek slides and exposed to ionizing radiation (20 Gy), which was calibrated using an X-ray exposure meter. […] In control experiments, cells either received no ionizing radiation (sham) or no compound. After 6 h incubation, the cells were fixed in methanol and stained with 5 μg/ml 4,6-diamidino-2-phenylindole (DAPI). DNA was visualized using a Nikon epifluorescence microscope, and apoptosis was scored and expressed as an apoptotic index (% apoptotic cells in a field of 100).

[2] = tested on: Bovine capillary endothelial cells; test: Cytotoxicity/necrosis of non-irradiated cells (LDH release, field number); assay type: cell-based
Procedure: as §1, with “100). […] Field number was also calculated for all other compounds tested as a control (results not shown).” for “100).”
To determine cytotoxicity of the compounds under these conditions, duplicate samples of the cells receiving a dose of compound at each concentration tested in the absence of a dose of ionizing radiation were assayed for release of LDH into the culture medium.

[3] = tested on: cultured mesencephalic tissue slices; test: MPP+ induced neurodegeneration in cultured mesencephalic tissue slices (LDH release); assay type: cell-based, rat; details: 20 μM MPP+; for prevention of cytotoxicity induced by MPP+: compound 100 nM, 1.0 μM, 10 μM, FIG. 17
Procedure: FIG. 17 is a graphical representation showing the effects of exemplary low molecular weight metalloporphyrin compounds of the present invention on MPP+ induced neurodegeneration in cultured mesencephalic tissue slices. Mesencephalic tissue slices were prepared from PND 3-5 rats and maintained in culture for 2 weeks. The tissue slices were incubated with a porphyrin compound as indicated on the x-axis for 6 hours before adding 20 μM MPP+ to induce neuronal apoptosis. Concentrations of each porphyrin compound tested were 100 nM ? 1.0 μM ? and 10 μM ? Following a further incubation for 48 hours, the slices were collected and the level of lactate dehydrogenase (LDH) released into the medium was determined.

[4] = Stability in USP simulated gastric fluid (SGF); assay type: in vitro ADME; details: 37° C., pH approx. 1.2
From the text: Aliquots of SGF were withdrawn and intact compound quantitated by HPLC-UV.

[5] = Lipophilicity by octanol partitioning; assay type: physicochemical; details: for Log10 P value / P value (octanol partitioning coefficient): octanol-water
Procedure: To indicate the likelihood that the compounds will cross lipid membranes and be absorbed once administered by oral means, their lipophilicities were determined by octanol partitioning. […] Quantitation was performed by HPLC-UV.

[6] = Oral bioavailability in vivo, plasma levels by LC-MS/MS after intragastric gavage; set-up: species or system rat; details: intragastric gavage, 4 mg/kg EUK-418 or 2 mg/kg EUK-423
Procedure: FIG. 18 is a graphical representation showing the bioavailability in vivo for the compounds {[{(Porphine-5,15-diyl)bis[cyclopropyl-diyl]}](2-)-N^21,N^22,N^23,N^24} manganese(III) acetate (EUK-418) and {[{(Porphine-5,15-diyl)bis[benzyl-diyl]}](2-)-N^21,N^22,N^23,N^24} manganese(III) acetate (EUK-423) in rats. Fasted and fed Sprague-Dawley rats were dosed by intragastric gavage with either 4 mg/kg EUK-418 or 2 mg/kg EUK-423. At the times indicated on the x-axis, plasma was obtained from the animals and the concentrations of compounds determined by LC-MS/MS.
Fasted and fed Sprague-Dawley rats were dosed by intragastric gavage with either 4 mg/kg EUK-418 or 2 mg/kg EUK-423. At time points up to 7 hr post-administration, animals were sacrificed, their blood collected over heparin, plasma samples prepared by centrifugation, and plasma levels of the compounds were determined by LC-MS/MS.

[7] = Superoxide dismutase (SOD) activity; assay type: biochemical
[8] = Plasma recovery after oral dose (another study); assay type: in vivo; details: 3.5 mg/kg dose administered orally; not shown
[9] = molecular target: mitochondrial benzodiazepine receptor (mBzR) (Homo sapiens, UniProt P30536); test: Inhibition of tritiated PK11195 binding to the receptor; details: read-out: Ki against the binding of PK11195
Procedure: Standard methods e.g., competition assays, are used to determine ge an inhibition, prevention or delay in binding of a ligand of a mitochondrial benzodiazepine receptor by a low molecular weight porphyrin derivative compound of the invention. As exemplified herein, labelled PK11195 compound is contacted with the receptor in the presence of different concentrations of a compound being tested and binding of the labelled PK11195 compound is determined. […] Preferably, the concentration of the compound being tested that inhibits binding of the ligand by 50% (i.e., […]) is determined.
FIG. 15 is a graphical representation showing the ability of the compounds {[{(Porphine-5,15-diyl)bis[cyclopropyl-diyl]}](2-)-N^21,N^22,N^23,N^24} manganese (III) acetate (EUK-418) and (5,10,15,20-Tetra ethylporphyrinato) manganese (III) acetate (EUK-425) to inhibit binding of tritiated PK11195 to the mitochondrial benzodiazepine receptor (mBzR). The Ki value for each compound is indicated.
FIG. 16 is a tabular representation showing a series of low molecular weight metalloporphyrin compounds designated EUK-418, EUK-423, EUK-424, EUK-425 and EUK-426, that inhibit ligand binding to the mitochondrial benzodiazepine receptor (mBzR) with moderate affinity, as determined by the Ki value (last column) for inhibition of tritiated PK11195, binding to the receptor. […]

[10] = FIG. 12, at up to about 5 μM concentration, toxicity blunts protection at high concentrations
[11] = cuvette format, read-out: Cuvette IC50
[12] = microplate format, read-out: Microplate IC50
[13] = FIG. 12, among compounds tested

Sequence of mitochondrial benzodiazepine receptor (mBzR) (P30536 whole entry, species assumed): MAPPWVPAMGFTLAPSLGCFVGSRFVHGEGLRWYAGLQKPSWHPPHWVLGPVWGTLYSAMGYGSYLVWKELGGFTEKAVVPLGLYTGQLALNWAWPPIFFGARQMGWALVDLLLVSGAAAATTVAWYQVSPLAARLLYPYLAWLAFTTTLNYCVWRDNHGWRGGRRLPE

Structure (SMILES)	effect on staurosporine-induced apoptosis of PC12 cells (PC12 cells; [10])	prevention of cytotoxicity induced by MPP+ [3]	Percentage remaining after 90 mins in SGF [4]	Log10 P value [5]	P value (octanol partitioning coefficient) [5]	IC50 [7, 11]	IC50 [7, 12]	further results
C1=Cc2nc1cc1ccc([n-]1)c(-c1ccccc1)c1nc(cc3ccc([n-]3)c2-c2ccccc2)C=C1.CC(=O)[O-].[Mn+3] [EUK-423, {[{(Porphine-5,15-diyl)bis[benzyl-diyl]}](2-)-N^21,N^22,N^23,N^24} manganese(III) acetate]	effectively reduce apoptosis	prevent cytotoxicity	91.2%	0.907 ± 0.002	8.07 ± 0.10	17.3 µM	4.1 µM	effect on staurosporine-induced apoptosis of PC12 cells (PC12 cells; FIG. 11): effectively reduce apoptosis; concentration providing protection from the apoptotic effects of ionizing radiation ([1]; 20 Gy): 3 to 10 µM; protection of cells exposed to ionizing radiation ([1]; about 3-10 μM compound, 20 Gy, p<0.006): approximately 87%; protection of cells exposed to ionizing radiation ([1]; low doses, FIG. 13 and FIG. 14): protected; necrosis at the protective concentration ([2]; 3 μM EUK-418, about 3-10 μM EUK-423): no detectable necrosis; concentration causing significant increase in field number for control cells, indicating cytotoxicity ([2]; control cells without ionizing radiation): ≥ 30 µM; plasma time course [6]: increased in plasma during the first four hour period; found in plasma / bioavailable after oral administration ([6]; fasted and fed rats): bioavailable in vivo
C1=Cc2nc1cc1ccc([n-]1)c(C1CCCCC1)c1nc(cc3ccc([n-]3)c2C2CCCCC2)C=C1.[Cl-].[Mn+3] [EUK-452, {[{(Porphine-5,15-diyl)bis[cyclohexyl-diyl]}](2-)-N^21,N^22,N^23,N^24} manganese(III) chloride]	effectively reduce apoptosis	–	98.2%	1.973 ± 0.008	93.97 ± 1.67	20.1 µM	9.05 µM	concentration providing protection from the apoptotic effects of ionizing radiation ([1]; 20 Gy): 3 µM; lipophilicity ([5]; octanol partitioning): most lipophilic
C1=Cc2nc1cc1ccc([n-]1)c(C1CCOCC1)c1nc(cc3ccc([n-]3)c2C2CCOCC2)C=C1.[Cl-].[Mn+3] [EUK-451, {[{(Porphine-5,15-diyl)bis[4-Tetrahydropyrano-diyl]}](2-)-N^21,N^22,N^23,N^24} manganese(III) chloride]	effectively reduce apoptosis	–	100%	−0.660 ± 0.011	0.219 ± 0.005	29.1 µM	2.39 µM	relative activity against STS-induced apoptosis (PC12 cells; [13]): highest activity; relative toxicity in PC12 model (PC12 cells; [13]): lowest toxicity; recovery from plasma [8]: recovered from plasma at low levels
CC(=O)[O-].CCc1c2nc(c(CC)c3ccc([n-]3)c(CC)c3nc(c(CC)c4ccc1[n-]4)C=C3)C=C2.[Mn+3] [EUK-425, (5,10,15,20-Tetraethylporphyrinato)manganese (III) acetate]	effectively reduce apoptosis	prevent cytotoxicity	97.0%	0.932 ± 0.006	8.56 ± 0.35	32.5 µM	0.439 µM	necrosis at the doses tested ([2]; range of 0.5 μM to 100 μM, data therefore expressed as field number): necrosis was observed; Ki [9]: 0.027 µM; EC50 ([3]; LDH release, read-out: EC50 in MPP+ slice model): < 0.1 µM
CC(=O)O.CCOc1cccc(C=NCCN=Cc2cccc(OCC)c2O)c1O.[Mn] [EUK-189, reference compound]	–	–	–	–	–	0.55 µM	0.824 µM	–
CCCc1c2nc(cc3ccc([n-]3)c(CCC)c3nc(cc4ccc1[n-]4)C=C3)C=C2.[Cl-].[Mn+3] [EUK-453, {[{(Porphine-5,15-diyl)bis[propyl-diyl]}](2-)-N^21,N^22,N^23,N^24} manganese(III) chloride]	effectively reduce apoptosis	–	98.4%	0.619 ± 0.017	4.16 ± 0.16	60.9 µM	2.3 µM	–
CC(=O)[O-].COc1ccc(-c2c3nc(cc4ccc([n-]4)c(-c4ccc(OC)cc4)c4nc(cc5ccc2[n-]5)C=C4)C=C3)cc1.[Mn+3] [EUK-450, {[{(Porphine-5,15-diyl)bis[benzene-1,4 diyl (4-methyl-oxy)]}](2-)-N^21,N^22,N^23,N^24} manganese(III) acetate]	effectively reduce apoptosis	–	98.1%	0.650 ± 0.010	4.46 ± 0.11	9.98 µM	3.12 µM	–
CC(=O)[O-].CC(C)c1c2nc(c(C(C)C)c3ccc([n-]3)c(C(C)C)c3nc(c(C(C)C)c4ccc1[n-]4)C=C3)C=C2.[Mn+3] [EUK-424, (5,10,15,20-Tetraisopropylporphyrinato)manganese (III) acetate]	–	prevent cytotoxicity	–	–	–	–	–	–
